According to patent US8598161B2, “Compounds for the reduction of beta-amyloid production” (Bristol-Myers Squibb Company, priority 2011, dated 2013):

Tested on: Aβ42 production in H4 APP751 SWE clone 8.20 cells
Assay: Cellular assay for inhibition of Aβ1-42 production
Assay type: cell-based
Conditions: H4 cells stably transfected with APP751 Swedish mutation (clone 8.20), 19 h incubation
Description: H4 cells stably transfected with APP751 containing the Swedish mutation (H4 APP751 SWE clone 8.20, developed at BMS) were maintained in log phase through twice weekly passage at a 1:20 split. […] Following incubation for 19 h in 5% CO2 at 37° C., plates were briefly centrifuged (1000 rpm, 5 min). A 10 μl aliquot from each well was transferred to a second assay plate (Costar 3709) for Aβ40 measurements. Antibody cocktails were freshly prepared by dilution into 40 mM Tris-HCl (pH 7.4) with 0.2% BSA and added to assay plates. For Aβ42 measurements, antibodies specific for the Aβ42 neoepitope (565, developed at BMS; conjugated to the Wallac reagent (Perkin Elmer)) and the N-terminal sequence of Aβ peptide (26D6, developed at SIBIA; conjugated to APC (Perkin Elmer)) were mixed and 20 μl of the mixture was added to each well of the incubated cell plate yielding a final concentration of 0.8 ng/well 565 and 75 ng/well 26D6. […] Assay plates containing antibodies were sealed with aluminum foil and incubated overnight at 4° C. Signal was determined using a Viewlux counter (Perkin Elmer) and IC50 values determined using curve fitting in CurveMaster (Excel Fit based).

Structure (SMILES) | IC50
NC1=N[C@@]2(c3cc(NC(=O)c4ccccn4)ccc3F)OCC[C@H]2CS1 (racemic) [Example 5, (±)-N-(3-((4aR,7aR)-2-amino-4a,5,6,7a-tetrahydro-4H-furo[2,3-d][1,3]thiazin-7a-yl)-4-fluorophenyl)picolinamide] | 856 nM
NC1=N[C@@]2(c3cc(NC(=O)c4ccc(Cl)cn4)ccc3F)OCC[C@H]2CS1 [Example 2, N-(3-((4aR,7aR)-2-amino-4a,5,6,7a-tetrahydro-4H-furo[2,3-d][1,3]thiazin-7a-yl)-4-fluorophenyl)-5-chloropicolinamide] | 24 nM
CC#Cc1cncc(-c2cc([C@@]34N=C(N)SC[C@@H]3CCO4)c(F)cc2F)c1 (racemic) [Example 8, (±)-(4aR,7aR)-7a-(2,4-difluoro-5-(5-(prop-1-ynyl)pyridin-3-yl)phenyl)-4a,5,6,7a-tetrahydro-4H-furo[2,3-d][1,3]thiazin-2-amine] | 924 nM
NC1=N[C@@]2(c3cc(NC(=O)c4ccc(F)cn4)ccc3F)OCC[C@H]2CS1 (racemic) [Example 4, (±)-N-(3-((4aR,7aR)-2-amino-4a,5,6,7a-tetrahydro-4H-furo[2,3-d][1,3]thiazin-7a-yl)-4-fluorophenyl)-5-fluoropicolinamide] | 465 nM
NC1=N[C@@]2(c3cc(-c4cncnc4)c(F)cc3F)OCCC[C@H]2CS1 [Example 11, (4aR,8aR)-8a-(2,4-difluoro-5-(pyrimidin-5-yl)phenyl)-4,4a,5,6,7,8a-hexahydropyrano[2,3-d][1,3]thiazin-2-amine] | 995 nM
N#Cc1ccc(C(=O)Nc2ccc(F)c([C@@]34N=C(N)SC[C@@H]3CCO4)c2)nc1 [Example 3, N-(3-((4aR,7aR)-2-amino-4a,5,6,7a-tetrahydro-4H-furo[2,3-d][1,3]thiazin-7a-yl)-4-fluorophenyl)-5-cyanopicolinamide] | 72 nM
